Test results: PMC8597046, “Use of Mixture Dosing and Nonlinear Mixed Effect Modeling of Eight Environmental Contaminants in Rabbits to Improve Extrapolation Value of Toxicokinetic Data” (Environmental Health Perspectives, 2021)

Key:
[1] = TK assay, intravenous mixture dosing: serum concentrations and noncompartmental analysis (sparse data); details: for Serum concentration: IV; for AUC0−inf / Cmax: serum; for Cmax: doses in Table 2 r3, BPSG after BPS dosing
Description: (§1) The experiment was carried out on thirty 10-wk old female New Zealand white rabbits (INRA 1777 line) weighing 2.37±0.14kg . […] Blood samples were taken at the designated time points post IV and oral administration: 15 min, 30 min, 1 h, 2 h, 4 h, 8 h, 12 h, 24 h, 3 d, 7 d, and 28 d from groups of 3 or 6 rabbits at each sampling time. Each rabbit was sampled 3 times and 3 rabbits were sampled at each sampling time, except at 30 min post administration, when 6 samples were collected to provide a sufficient blood volume for assaying the compounds. The doses and assay time points were selected to allow the calculation of TK parameters (Table 1) based on preliminary TK data. Residual concentrations of the compounds, and their possible evolution over time, were determined by sampling six entirely untreated rabbits during the TK study on the day of drug administrations, then 14 d and 28 d later.
(§2) The volume administered was adjusted to the animal’s body weight (BW) recorded the day before.
(§3) Intravenous administrations were performed via an indwelling catheter (22G Terumo, 0.9×25mm ) just after its insertion into an ear vein. […] For oral administrations, the mixture of all compounds ( 4mL/kg ) was deposited directly in the mouth of rabbits using a catheter (22G BD Insyte 22G, 0.9×25mm ). Prior to the study, the rabbits had been trained to gradually swallow water and then corn oil.
(§4) Blood samples were collected from the auricular artery using a 20 G needle ( 0.9×25mm ) and a dry tube. The first two blood samples were 8–10mL in volume, whereas a large volume (about 20mL ) was obtained antemortem immediately after electrical stunning (95LX rabbit stunner; Burdis), followed by exsanguination.
(§5) Serum concentration-time profiles of the different compounds were first analyzed using a noncompartmental approach (NCA) involving a sparse data option. Sparse data methodology consists of calculating TK parameters based on the mean profile of all the subjects in the dataset and is appropriate when a rich data series cannot be obtained, as in the present experiment ([FDA 1999]). The area under the concentration time curve ( AUC0−tlast ) and the area under the first moment curve ( AUMC0−tlast ) from dosing time ( t=0 ) to the time of the last measurable concentration were calculated using the linear trapezoidal rule after IV and oral dosing. The area under the serum concentration time curve from dosing time to infinity ( AUC0−inf ) was obtained by adding to AUC0−tlast the area extrapolated from the time of the last measurable concentration to infinity by dividing the last quantifiable serum concentration by the slope of the terminal phase ( λZ ), as estimated by linear regression using the best fit option of Phoenix®.
(§6) The clearance (CL) and apparent clearance (CL_F) were respectively estimated after IV and oral administrations by dividing the administered dose by the AUC0−inf calculated for each analyte.
(§7) The terminal half-life (HL) was estimated with Equation 1: (1) HL=0.69315/λZ where λz is the slope of the terminal phase.
The mean residence time (MRT) was estimated using Equation 3: (3) MRT=AUMCiv0−tlast /AUCiv0−tlast , where AUCMiv0−tlast and AUCiv0−tlast are the values of AUMC0−tlast and AUC0−tlast obtained after IV dosing.
The steady-state volume of distribution ( VSS ) was estimated using Equation 4: (4) VSS=CL×MRT, with CL and MRT as defined above.

[2] = TK assay, oral mixture dosing: serum concentrations and noncompartmental analysis (sparse data); details: for Serum concentration: oral; for AUC0−inf / Cmax: serum; for Cmax: doses in Table 3 r3, MEHP measured after oral DEHP, BPSG after BPS
Description: as §1, §2, §3, §4, §5, §6, §7
The oral bioavailability (F) was estimated using Equation 2: (2) F=AUCvo0−tlast×Doseiv/AUCiv0−tlast×Dosevo, where AUCiv0−tlast and AUCvo0-tlast are the values of AUC0−tlast obtained after IV and oral dosing, respectively, and Doseiv and Dosevo are the IV and oral doses.

[3] = oral mixture dosing, NCA, n=12, MEHP after oral DEHP
[4] = rabbit 13, 4.30 h, MEHP after oral DEHP
[5] = rabbit 14, 0.37 h, MEHP after oral DEHP
[6] = rabbit 14, 4.17 h, MEHP after oral DEHP
[7] = rabbit 15, 4.05 h, MEHP after oral DEHP
[8] = rabbit 15, 23.98 h, MEHP after oral DEHP
[9] = rabbit 16, 0.55 h, MEHP after oral DEHP
[10] = rabbit 16, 8.22 h, MEHP after oral DEHP
[11] = rabbit 16, 72.00 h, MEHP after oral DEHP
[12] = rabbit 17, 0.53 h, MEHP after oral DEHP
[13] = rabbit 17, 8.48 h, MEHP after oral DEHP
[14] = rabbit 17, 72.00 h, MEHP after oral DEHP
[15] = rabbit 18, 0.55 h, MEHP after oral DEHP
[16] = rabbit 18, 8.00 h, MEHP after oral DEHP
[17] = rabbit 18, 71.96 h, MEHP after oral DEHP
[18] = rabbit 19, 1.02 h, MEHP after oral DEHP
[19] = rabbit 19, 12.00 h, MEHP after oral DEHP
[20] = rabbit 20, 1.07 h, MEHP after oral DEHP
[21] = rabbit 20, 12.00 h, MEHP after oral DEHP
[22] = rabbit 21, 1.08 h, MEHP after oral DEHP
[23] = rabbit 21, 12.00 h, MEHP after oral DEHP
[24] = rabbit 22, 2.00 h, MEHP after oral DEHP
[25] = rabbit 23, 2.00 h, MEHP after oral DEHP
[26] = rabbit 24, 2.22 h, MEHP after oral DEHP

`O=S(=O)(c1ccc(O)cc1)c1ccc(O)cc1` [BPS, bisphenol S] gave a CL ([1]; IV mixture dosing, NCA, n=12) of 72.5 mL/min/kg, an MRT ([1]; IV mixture dosing, NCA, n=12) of 1.26 h and a Serum concentration ([1]; rabbit 1, 0.30 h) of 2080 nM. It also gave a Serum concentration ([1]; rabbit 1, 4.38 h) of 25 nM, a Serum concentration ([1]; rabbit 1, 24.03 h) of less than 4 nM and a Serum concentration ([1]; rabbit 2, 0.28 h) of 4060 nM. The Serum concentration ([1]; rabbit 2, 4.05 h) was 29 nM, the Serum concentration ([1]; rabbit 3, 0.35 h) was 3380 nM and the Serum concentration ([1]; rabbit 3, 4.05 h) was 65 nM. For the same molecule, the Serum concentration ([1]; rabbit 4, 0.62 h) was 1030 nM, the Serum concentration ([1]; rabbit 4, 8.33 h) was 22 nM and the Serum concentration ([1]; rabbit 4, 72.00 h) was less than 4 nM. It also gave a Serum concentration ([1]; rabbit 5, 0.75 h) of 1230 nM, a Serum concentration ([1]; rabbit 5, 8.62 h) of 15 nM and a Serum concentration ([1]; rabbit 5, 72.03 h) of less than 4 nM. For the same molecule, the Serum concentration ([1]; rabbit 6, 0.57 h) was 1840 nM, the Serum concentration ([1]; rabbit 6, 7.98 h) was 22 nM and the Serum concentration ([1]; rabbit 6, 71.97 h) was less than 4 nM. The Serum concentration ([1]; rabbit 7, 1.13 h) was 370 nM, the Serum concentration ([1]; rabbit 7, 11.98 h) was 8.5 nM and the Serum concentration ([1]; rabbit 8, 1.12 h) was 290 nM. For the same molecule, the Serum concentration ([1]; rabbit 8, 12.02 h) was 6 nM, the Serum concentration ([1]; rabbit 9, 1.03 h) was 410 nM and the Serum concentration ([1]; rabbit 9, 11.97 h) was 7.4 nM. For the same molecule, the Serum concentration ([1]; rabbit 11, 2.08 h) was 110 nM, the Serum concentration ([1]; rabbit 12, 2.08 h) was 200 nM and the “AUC0−inf” value ([1]; IV mixture dosing, NCA, n=12) was 2.41 µM·h. The Cmax ([1]; IV mixture dosing, NCA, n=12) was 4060 nM, the MRT [2, 3] was 6.54 h and the Tmax [2, 3] was 0.23 h. The Serum concentration [2, 4] was 140 nM, the Serum concentration [2, 5] was 1550 nM and the Serum concentration [2, 6] was 130 nM. The Serum concentration [2, 7] was 110 nM, the Serum concentration [2, 8] was 12 nM and the Serum concentration [2, 9] was 320 nM. The Serum concentration [2, 10] was 50 nM, the Serum concentration [2, 11] was less than 4 nM and the Serum concentration [2, 12] was 58 nM. The Serum concentration [2, 13] was 121 nM, the Serum concentration [2, 14] was less than 4 nM and the Serum concentration [2, 15] was 940 nM. The Serum concentration [2, 16] was 49 nM, the Serum concentration [2, 17] was less than 4 nM and the Serum concentration [2, 18] was 190 nM. It also gave a Serum concentration [2, 19] of 87 nM, a Serum concentration [2, 20] of 150 nM and a Serum concentration [2, 21] of 51 nM. For the same molecule, the Serum concentration [2, 22] was 97 nM, the Serum concentration [2, 23] was 100 nM and the Serum concentration [2, 24] was 120 nM. For the same molecule, the Serum concentration [2, 25] was 88 nM, the Serum concentration [2, 26] was 110 nM and the “AUC0−inf” value [2, 3] was 3.38 µM·h. For the same molecule, the Cmax ([2]; oral mixture dosing, NCA, n=12) was 6930 nM.

Molecule `CCCCC(CC)COC(=O)c1ccccc1C(=O)O` (stereo not shown) [MEHP, mono(2-ethylhexyl)phthalate] has a CL ([1]; IV mixture dosing, NCA, n=12) of 7.15 mL/min/kg, an MRT ([1]; IV mixture dosing, NCA, n=12) of 16.3 h and a VSS ([1]; IV mixture dosing, NCA, n=12) of 7.00 L/kg. The VZ ([1]; IV mixture dosing, NCA, n=12) was 7.85 L/kg, the Serum concentration ([1]; rabbit 1, 0.30 h) was 11380 nM and the Serum concentration ([1]; rabbit 1, 4.38 h) was 72 nM. For the same molecule, the Serum concentration ([1]; rabbit 1, 24.03 h) was less than 18 nM, the Serum concentration ([1]; rabbit 2, 0.28 h) was 14440 nM and the Serum concentration ([1]; rabbit 2, 4.05 h) was 39 nM. For the same molecule, the Serum concentration ([1]; rabbit 3, 0.35 h) was 3040 nM, the Serum concentration ([1]; rabbit 3, 4.05 h) was 59 nM and the Serum concentration ([1]; rabbit 4, 0.62 h) was 4130 nM. For the same molecule, the Serum concentration ([1]; rabbit 4, 8.33 h) was 27.5 nM, the Serum concentration ([1]; rabbit 4, 72.00 h) was less than 18 nM and the Serum concentration ([1]; rabbit 5, 0.75 h) was 3760 nM. It also gave a Serum concentration ([1]; rabbit 5, 8.62 h) of 42 nM, a Serum concentration ([1]; rabbit 5, 72.03 h) of less than 18 nM and a Serum concentration ([1]; rabbit 6, 0.57 h) of 7060 nM. The Serum concentration ([1]; rabbit 6, 7.98 h) was 21 nM, the Serum concentration ([1]; rabbit 6, 71.97 h) was 36 nM and the Serum concentration ([1]; rabbit 7, 1.13 h) was 1210 nM. The Serum concentration ([1]; rabbit 7, 11.98 h) was less than 18 nM, the Serum concentration ([1]; rabbit 8, 1.12 h) was 820 nM and the Serum concentration ([1]; rabbit 8, 12.02 h) was less than 18 nM. The Serum concentration ([1]; rabbit 9, 1.03 h) was 720 nM, the Serum concentration ([1]; rabbit 9, 11.97 h) was less than 18 nM and the Serum concentration ([1]; rabbit 11, 2.08 h) was 480 nM. The Serum concentration ([1]; rabbit 12, 2.08 h) was 450 nM, the “AUC0−inf” value ([1]; IV mixture dosing, NCA, n=12) was 9.73 µM·h and the Cmax ([1]; IV mixture dosing, NCA, n=12) was 14400 nM. The half-life ([1]; terminal, IV mixture dosing, NCA, n=12) was 12.7 h, the “F (fraction of the dose of DEHP that has been metabolized into MEHP)” value ([2]; NCA, MEHP after oral DEHP vs IV MEHP, as fraction) was 0.99 and the MRT [2, 3] was 12.0 h. For the same molecule, the Tmax [2, 3] was 4.05 h, the Serum concentration [2, 4] was 5150 nM and the Serum concentration [2, 5] was 1090 nM. For the same molecule, the Serum concentration [2, 6] was 5840 nM, the Serum concentration [2, 7] was 6870 nM and the Serum concentration [2, 8] was 270 nM. It also gave a Serum concentration [2, 9] of 1490 nM, a Serum concentration [2, 10] of 2380 nM and a Serum concentration [2, 11] of 33 nM. It also gave a Serum concentration [2, 12] of 2290 nM, a Serum concentration [2, 13] of 4200 nM and a Serum concentration [2, 14] of 25 nM. The Serum concentration [2, 15] was 2150 nM, the Serum concentration [2, 16] was 3830 nM and the Serum concentration [2, 17] was 91 nM. It also gave a Serum concentration [2, 18] of 4160 nM, a Serum concentration [2, 19] of 1610 nM and a Serum concentration [2, 20] of 3160 nM. The Serum concentration [2, 21] was 1930 nM, the Serum concentration [2, 22] was 2800 nM and the Serum concentration [2, 23] was 1910 nM. For the same molecule, the Serum concentration [2, 24] was 3290 nM, the Serum concentration [2, 25] was 2930 nM and the Serum concentration [2, 26] was 1570 nM. For the same molecule, the “AUC0−inf” value [2, 3] was 65.2 µM·h, the Cmax ([2]; oral mixture dosing, NCA, n=12) was 6870 nM and the half-life ([2]; terminal, oral mixture dosing, NCA, n=12, MEHP after oral DEHP) was 10.4 h.
